Test results from paper PMC6630837 (Pharmaceuticals, 2019).
“Also recorded” adds a separate entry of the source. Read-outs that look alike come from different tables or passages of the source.

Key:
[1] = test system: SH-SY5Y human neuroblastoma cells; assay: Neuroprotection against H2O2-induced toxicity, MTT cell viability assay; format: cell-based; conditions: 50 μM compound, 100 μM H2O2, 24 h, 37 °C
Text: Neuroprotective activity assays against H2O2-induced toxicity. On the basis of previously described protocols, the flavones and analogues herein synthesized were screened for their neuroprotective effects against H2O2-induced oxidative stress and neuronal damage in SH-SY5Y human neuroblastoma cells by means of a thiazolyl blue tetrazolium bromide (MTT) reduction-based cell viability assay.
Neuroprotective assays in human neuroblastoma (SH-SY5Y) cells. […] Differences were considered significant when P < 0.05.

[2] = test system: SH-SY5Y neuroblastoma cells; assay: Cytotoxic activity of compounds alone, MTT cell viability assay; conditions: 24 h
Procedure: Neuroprotective assays in human neuroblastoma (SH-SY5Y) cells. SH-SY5Y cells were grown in Dulbecco’s Modified Eagle Medium (DMEM, Gibco, Life Technologies) supplemented with 10% fetal bovine serum (FBS, Biochrom GmbH) and 1% Penicillin-Streptomycin (Gibco, Life Technologies) in a humidified incubator at 37 °C, 5% CO2. For the neuroprotective activity assay, undifferentiated SGSY-5Y cells were plated onto 96-well flat-bottomed microtiter plates at a density of 1 × 10^4 cells/well in DMEM supplemented with 2% FBS and preincubated for 24 h at 37 °C, 5% CO2. Compounds (stored as 10 mM solutions in DMSO at −20 °C) were then added to achieve a final concentration of 50 μM and, after 30 min, cells were incubated in the presence or absence of 20 μM Aβ protein fragment 1-42 (Sigma-Aldrich, dissolved in DMSO and stored in 2 mM aliquots at −20 °C) or 100 μM of H2O2 (Sigma-Aldrich, dissolved to 10 mM in 0.9% NaCl aqueous solution immediately prior to the assay) overnight at 37 °C, 5% CO2. […] The following morning, 20 μL of a 5 mg/mL solution of 3-(4,5-dimethylthiazol-2-yl)-2,5-diphenyltetrazolium bromide (MTT, Sigma-Aldrich) in PBS (Gibco, Life Technologies) was added to each well and the plates were further incubated for 4 h at 37 °C, followed by the addition of DMSO (200 μL) to each well in order to dissolve the resulting formazan crystals. After 2 h incubating at 37 °C, the optical density (OD) at 540 nm (with a 620 nm reference filter) was measured in an Amersham Biosciences Biotrak II Plate Reader. The percentage of MTT reduction was determined according to Equation (1). […] Differences between experimental conditions were compared for statistical significance by one-way ANOVA followed by a Tukey’s post-test, an analysis carried out using GraphPad Prism Software (LA Jolla, CA, USA). Differences were considered significant when P < 0.05. In order to exclude direct MTT reduction, compounds were also tested in (a) the absence of cells and (b) in the absence of both cells and culture medium, using the same experimental conditions described above. (2) MTT Reduction (% of Control)=[ODsample−ODmedium/ODcell control−ODmedium] × 100 […]
Tabl e S2. Cytotoxic activity of each compound assessed in SH-SY5Y neuroblastoma cells via an MTT cell viability assay.a Comp ound Nr. MTT reduction (% control) p-va l u e vs . untreated cell control (unpai red t-t es t) […]
a Cells were incubated for 24 h at 37 °C, in the presence (50 μM) or absence of each compound.

[3] = molecular target: acetylcholinesterase (AChE) (Electrophorus electricus, UniProt O42275); assay: Acetylcholinesterase inhibition, Ellman's colorimetric assay; format: biochemical; conditions: 100 µM compound; for inhibition at 100 µM: read-out: AChE inhibitory efficacy (percentage of inhibition)
Chain of acetylcholinesterase (AChE) (O42275 24-633): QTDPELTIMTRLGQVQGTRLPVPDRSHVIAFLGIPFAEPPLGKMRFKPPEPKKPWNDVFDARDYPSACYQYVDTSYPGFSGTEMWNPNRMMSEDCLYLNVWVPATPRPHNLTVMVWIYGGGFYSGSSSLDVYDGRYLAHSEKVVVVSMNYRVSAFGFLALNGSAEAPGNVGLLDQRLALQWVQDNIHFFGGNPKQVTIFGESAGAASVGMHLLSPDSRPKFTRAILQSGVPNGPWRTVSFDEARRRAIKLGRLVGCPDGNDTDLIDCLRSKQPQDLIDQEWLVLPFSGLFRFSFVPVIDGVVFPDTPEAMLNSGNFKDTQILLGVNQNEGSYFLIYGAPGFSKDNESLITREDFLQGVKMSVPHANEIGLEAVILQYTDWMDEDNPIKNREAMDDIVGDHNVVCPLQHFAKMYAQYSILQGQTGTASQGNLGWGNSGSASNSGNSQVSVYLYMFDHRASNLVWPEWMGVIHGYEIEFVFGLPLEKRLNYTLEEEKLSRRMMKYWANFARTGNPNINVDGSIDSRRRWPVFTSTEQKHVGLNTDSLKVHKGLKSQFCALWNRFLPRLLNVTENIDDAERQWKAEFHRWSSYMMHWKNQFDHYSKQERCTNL
Procedure: For cholinesterase inhibition tests (acetylcholinesterase (AChE, electrophorus
was kept within 1.25% cuvette concentration.
AChE and at 18.2 µM concentration for BuChE. […]

[4] = molecular target: T1, butyrylcholinesterase (BuChE) (Equus caballus, UniProt P81908); assay: biochemical; conditions: for inhibition at 100 µM: read-out: BuChE inhibitory efficacy (percentage of inhibition)
T1 construct: (BuChE, equine serum); from tissue; host or cells: equine serum
T1 sequence (P81908 whole entry): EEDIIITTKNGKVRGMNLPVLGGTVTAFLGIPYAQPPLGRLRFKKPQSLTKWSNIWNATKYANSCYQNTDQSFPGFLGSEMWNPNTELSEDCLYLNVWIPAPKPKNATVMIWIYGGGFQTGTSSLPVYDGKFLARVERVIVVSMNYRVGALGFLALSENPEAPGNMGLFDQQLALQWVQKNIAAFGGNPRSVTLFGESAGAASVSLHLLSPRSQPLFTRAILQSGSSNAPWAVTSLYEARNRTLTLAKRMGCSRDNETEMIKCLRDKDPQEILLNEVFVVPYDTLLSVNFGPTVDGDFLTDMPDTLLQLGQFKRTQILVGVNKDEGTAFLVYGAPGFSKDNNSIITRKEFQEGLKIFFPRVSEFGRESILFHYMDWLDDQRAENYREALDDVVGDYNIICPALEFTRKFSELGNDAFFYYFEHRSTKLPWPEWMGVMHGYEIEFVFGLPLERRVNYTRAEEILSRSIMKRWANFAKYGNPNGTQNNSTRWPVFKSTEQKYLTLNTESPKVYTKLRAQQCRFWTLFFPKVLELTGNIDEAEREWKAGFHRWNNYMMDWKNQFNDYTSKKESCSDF
Procedure: Experimental procedures for cholinesterase inhibition a s sa y s. For cholinesterase inhibition tests (acetylcholinesterase (AChE, electrophorus
el ec t r ic u s) a n d b ut yr ylcholinesterase (BuChE, equine serum), the Ellman’s cholorimetric assay1 was followed, with minor modifications. DMSO
was kept within 1.25% cuvette concentration. The chromogenic agent DTNB [5,5’-dithiobis(2-nitrobenzoic acid)] was fixed at 0.975 mM
con centration; 0. 1 M phosphate buffer (pH 8. 0) was employed, T = 25 °C, and the reaction was monitored for 125 s. […]
of inhibition, the substrate concentration (acetylthiocholine iodide for AChE; S- butyr ylthiocholine iodide for BuChE) was fixed at 29 µM for
AChE and at 18.2 µM concentration for BuChE.
Lineweaver-Burk plot (or double reciprocal plot, 1/V vs . 1/ [S ]) wa s u se d for estimating both, the mode of inhibition and the inhibition constants […]
Competitive inhibition (inhibitor only bonds the free enzyme):
KKiiii = [II ]KKMM iiaaaa
M i xe d inhibition (inhibitor binds both, the free and the complexed enzyme) :
Uncompetitive (the inhibitors only binds the complexed enzyme):
N on -competitive (inhibitor binds both the free enzyme and the complexed enzyme with equal affinity) :
Table S3. […]
of the synthesized flavone analogues at 100 µ M.
C omp ou n d N o. AChE B uChE

[5] = LogD7.4 determination (octan-1-ol/phosphate buffer, LC-MS); format: physicochemical; conditions: for Log D7.4 (partition coefficient at pH 7.4): octan-1-ol/phosphate buffer pH 7.4, 25 °C
Procedure: LogD7.4 determination. The in-silico prediction tool ALOGPS [4] was used to estimate the octanol-water partition coefficients (log P) of the compounds. […] For each category, two different ratios (volume of octan-1-ol to volume of buffer) were defined as experimental parameters (Table 2).
Equal amounts of phosphate buffer (0.1 M, pH 7.4) and octan-1-ol were mixed and shaken vigorously for 5 min to saturate the phases. The mixture was left until separation of the two phases, and the buffer was retrieved. Stock solutions of the test compounds were diluted with buffer to a concentration of 1 μM. For each compound, three determinations per octan-1-ol:buffer ratio were performed in different wells of a 96-well plate. The respective volumes of buffer-containing analyte (1 μM) were pipetted to the wells and covered by saturated octan-1-ol according to the chosen volume ratio. […] The aqueous phase was transferred to a 96-well plate for analysis by liquid chromatography-mass spectrometry (LCMS, see below).
Results are presented as the mean ± SD of three independent experiments.
LC-MS measurements. […] The system was controlled with the Agilent MassHunter Workstation Data Acquisition software (version B.01.04). The column used was an AtlantisR T3 C18 column (2.1 × 50 mm) with a 3 μm-particle size (Waters Corp., Milford, MA, USA). The mobile phase consisted of eluent A: 10 mM ammonium acetate, pH 5.0 in 95:5, H2O:MeCN; and eluent B: MeCN containing 0.1% formic acid. The flow rate was maintained at 0.6 mL/min. […] MS parameters such as fragmentor voltage, collision energy, and polarity were optimized individually for each drug, and the molecular ion was followed for each compound in the multiple reaction monitoring mode. The concentrations of the analytes were quantified by the Agilent Mass Hunter Quantitative Analysis software (version B.01.04).

[6] = 50 μM compound alone, 37 °C, 0.5% DMSO, SH-SY5Y
[7] = octan-1-ol/phosphate buffer, pH 7.4, octan-1-ol/phosphate buffer pH 7.4, 25 °C, read-out: Log D7.4 (partition coefficient at pH 7.4)

## O=c1cc(C2CC2)oc2cc(O)cc(O)c12 [Compound 4, 2-Cyclopropyl-5,7-dihydroxy-4H-chromen-4-one]
[1]
  Neuroprotective effect against H2O2-induced toxicity (MTT cell viability): the increase was not significant
[2]; [6]
  MTT reduction (% control): 140.7 ± 12.0%
[3]
  inhibition at 100 µM: 24%
[4]
  inhibition at 100 µM: 30%
[5]; [7]
  logD: 2.9 ± 0.1

## CN(C)c1ccc(-c2cc(=O)c3c(O)cc(O)cc3o2)cc1 [Compound 10, 4′-Dimethylamino-5,7-dihydroxyflavone]
[1]
  Neuroprotective effect against H2O2-induced toxicity (MTT cell viability): not significantly active
[2]; [6]
  MTT reduction (% control): 191.5 ± 22.9%
[5]; [7]
  logD: 3.4 ± 0.2

## O=c1ccoc2c([C@@H]3O[C@H](CO)[C@@H](O)[C@H](O)[C@H]3O)c(O)cc(O)c12 [Compound 22, 8-(β-D-Glucopyranosyl)-5,7-dihydroxy-4H-chromen-4-one]
[1]
  Neuroprotective effect against H2O2-induced toxicity (MTT cell viability): no significant differences
[2]; [6]
  MTT reduction (% control): 149.2 ± 21.6%
[3]
  AChE inhibitory efficacy (percentage of inhibition): n.i .
[4]
  inhibition at 100 µM: 19%
[5]; [7]
  logD: -2 ± 0.2

## CCC(C)c1cc(=O)c2c(O)cc(O)cc2o1 (centres unmarked) [Compound 6, 5,7-Dihydroxy-2-(1-methylpropyl)-4H-chromen-4-one]
[1]
  Neuroprotective effect against H2O2-induced toxicity (MTT cell viability): the increase was not significant
[2]; [6]
  MTT reduction (% control): 109.9 ± 18.7%
[3]
  AChE inhibitory efficacy (percentage of inhibition): n.i .
[4]; 100 µM compound
  Butyrylcholinesterase inhibition, ranking in words: the most promising one
[4]; BuChE, Lineweaver-Burk plot
  Mode of inhibition: Mixed inhibition
[4]; BuChE, Lineweaver-Burk plot, read-out: Kia (inhibition constant)
  Ki: 44 ± 17 µM
[4]; BuChE, Lineweaver-Burk plot, read-out: Kib (inhibition constant)
  Ki: 36 ± 8 µM
[4]
  inhibition at 100 µM: 46%
[5]; [7]
  logD: > 2.5

## O=c1cc(-c2ccc(O)cc2)oc2c([C@@H]3O[C@H](CO)[C@@H](O)[C@H](O)[C@H]3O)c(O)cc(O)c12 [Compound 17, 8-(β-D-Glucopyranosyl)-5,7,4′-trihydroxyflavone]
[1]
  Neuroprotective effect against H2O2-induced toxicity (MTT cell viability): able to rescue cells from oxidative damage caused by H2O2; also recorded: able to fully recover cell viability
[2]; human, 50 μM
  MTT reduction (% control): 85.0 ± 38.5%
[5]; pH 7.4, Log D7.4 (partition coefficient at pH 7.4)
  logD: 0.1 ± 0.1

## O=c1cc(-c2ccccc2)oc2c([C@@H]3O[C@H](CO)[C@@H](O)[C@H](O)[C@H]3O)c(O)cc(O)c12 [Compound 16, 8-(β-D-Glucopyranosyl)-5,7-dihydroxyflavone]
[1]
  Neuroprotective effect against H2O2-induced toxicity (MTT cell viability): absence of significant effects
[2]; [6]
  MTT reduction (% control): 142.0 ± 38.5%
[3]
  inhibition at 100 µM: 20%
[4]; 100 µM compound
  BuChE inhibitory efficacy (percentage of inhibition): n.i .
[5]; [7]
  logD: 0.8 ± 0.3

## 2-(Furan-2-yl)-8-(β-D-glucopyranosyl)-5,7-dihydroxy-4H-chromen-4-one [Compound 21]
[1]
  Neuroprotective effect against H2O2-induced toxicity (MTT cell viability): able to rescue cells from oxidative damage caused by H2O2; also recorded: able to produce a significant improvement in cell viability
[2]; [6]
  MTT reduction (% control): 131.5 ± 11.0%
[5]
  Log D7.4 (partition coefficient at pH 7.4): −0.2 ± 0.1

## O=c1cc(C2CCC2)oc2cc(O)cc(O)c12 [Compound 5, 2-Cyclobutyl-5,7-dihydroxy-4H-chromen-4-one]
[1]
  Neuroprotective effect against H2O2-induced toxicity (MTT cell viability): the increase was not significant
[2]; [6]
  MTT reduction (% control): 184.6 ± 30.2%
[5]; [7]
  logD: > 2.5

## O=c1cc(-c2ccc(N3CCCC3)cc2)oc2cc(O)cc(O)c12 [Compound 9, 5,7-Dihydroxy-4′-(pyrrolidin-1-yl)flavone]
[1]
  Neuroprotective effect against H2O2-induced toxicity (MTT cell viability): able to produce statistically significant differences when compared to H2O2 controls
[2]; [6]
  MTT reduction (% control): 163.6% ± 72.6
[3]
  inhibition at 100 µM: 27%
[4]
  inhibition at 100 µM: 32%

## O=c1cc(-c2ccncc2)oc2cc(O)cc(O)c12 [Compound 12, 5,7-Dihydroxy-2-(pyridin-4-yl)-4H-chromen-4-one]
[1]
  Neuroprotective effect against H2O2-induced toxicity (MTT cell viability): contrarily
[2]; [6]
  MTT reduction (% control): 233.7 ± 15.7%

## O=c1ccoc2cc(O)cc(O)c12 [Compound 13, 5,7-dihydroxychromen-4-one, reference compound]
[1]
  Neuroprotective effect against H2O2-induced toxicity (MTT cell viability): no significant differences
[2]; [6]
  MTT reduction (% control): 71.2 ± 48.1%
[5]; [7]
  logD: 2.4 ± 0.1

## O=c1cc(-c2ccco2)oc2cc(O)cc(O)c12 [Compound 11, 2-(Furan-2-yl)-5,7-dihydroxy-4H-chromen-4-one]
[1]
  Neuroprotective effect against H2O2-induced toxicity (MTT cell viability): contrarily
[2]; [6]
  MTT reduction (% control): 129.7 ± 9.06%
[5]; [7]
  logD: > 2.5

## 8-(β-D-Glucopyranosyl)-5,7-dihydroxy-4′-(pyrrolidin-1-yl)flavone [Compound 20]
[2]; [6]
  MTT reduction (% control): 219.9 ± 16.9%
[5]
  Log D7.4 (partition coefficient at pH 7.4): 1.8 ± 0.2
